Earlier results on two molecules are cited in article PMC5427923, “A novel CCR2 antagonist inhibits atherogenesis in apoE deficient mice by achieving high receptor occupancy” (Scientific Reports, 2017).

Data set [1] deals with CCR2. Further details: method as in PMID 16210643. The settings on record: single oral dose of 50 mg/kg, mice; ref [35]; cited from earlier work.
Data set [2] relates to apoE−/− mice. Further details: method as in Aiello et al. [11]. The settings on record: ref Aiello et al. [11], cited from earlier work.
In data set [3] the test system is hCCR2b. The following applies: hCCR2; ref Vilums et al. [24]; cited from earlier work.

For `CCO[C@H]1CN(C2CCC(O)(c3ccc4c(c3)OCO4)CC2)C[C@@H]1NC(=O)CNC(=O)c1cccc(C(F)(F)F)c1` (mixture of isomers) [INCB3344], in data set [1], the CCR2 inhibition result is reported as “approximately 75%”. In data set [2] (apoE−/− mice), the “size of early and advanced atherosclerotic lesions” value was “failed to decrease”. In addition, the inflammatory monocyte levels result in data set [2] (up to 6 hours after oral infusion, lost at 9 hours) is on record as “significantly reduced”.

Consider `CO[C@@H]1COCC[C@@H]1N[C@@H]1CC[C@@](C(=O)N2CCc3ncc(C(F)(F)F)cc3C2)(C(C)C)C1` [MK-0812, reference compound], for which the RT in data set [3] is listed as 92 min.
